“Also recorded” adds a separate entry of the source.
Assays:
[1] = tested on: carrageenan-induced paw oedema; assay: Carrageenan-induced rat paw oedema; format: in vivo; conditions: 50 mg/kg oral; for %Inhibition of paw oedema, 1h / Paw thickness change mean ± SEM, 1h: 1 h after carrageenan; for Paw thickness change mean ± SEM, 1h / Paw thickness change mean ± SEM, 3h / Paw thickness change mean ± SEM, 5h: n = 4; for %Inhibition of paw oedema, 3h / Paw thickness change mean ± SEM, 3h: 3 h after carrageenan; for %Inhibition of paw oedema, 5h / Paw thickness change mean ± SEM, 5h: 5 h after carrageenan
Experimental: Female wister rats (150-200 g) were used in this study. The animals were kept at controlled conditions (temperature 23 ± 2 °C, humidity 60 ± 10%) and a 12/12-h light/dark cycle with access to food and water. All procedures relating to animal care and treatments were performed according to protocols approved by the Research Ethical Committee of Faculty of Pharmacy Beni-Suef University (2014-Beni-Suef, Egypt). The anti-inflammatory activity of the synthesised compounds was determined in vivo by […]-induced paw oedema method in rats[49]. Rats were divided into 21 groups of four animals each, and then, they were fasted overnight with free access to water before the experiment. Before any drug administration, thickness of the left hind paw of each rat was measured in millimetres. Group 1 served as a control and administered the vehicle (2.5% Tween 80).

[2] = tested on: gastric mucosa (ulcer number, ulcer index); assay: Ulcerogenic liability; format: in vivo, rat; conditions: 50 mg/kg oral, three successive days, rats; for Ulcer index: sum of % incidence, average severity and average number of ulcers
Experimental: Female wister rats (150–200 g) were used in this study. The animals were kept at controlled conditions (temperature 23 ± 2 °C, humidity 60 ± 10%) and a 12/12-h light/dark cycle with access to food and water. All procedures relating to animal care and treatments were performed according to protocols approved by the Research Ethical Committee of Faculty of Pharmacy Beni-Suef University (2014-Beni-Suef, Egypt).
[…]. Forty-eight rats were used in this study, divided into 12 groups and fasted for 18 h before drug administration. The control group received the vehicle (2.5% Tween 80). Other groups received test compounds, celecoxib or indomethacin at a dose of 50 mg/kg, then animals were fed after 2 h. Rats were given the specified dose orally for three successive days. Rats were sacrificed after 2 h of the last dose, then the stomach of each rat was removed and opened along the greater curvature for determination of the ulcer number and ulcer index according to the reported method.

rat's gastric tissue = assay: Histopathological investigation of stomach; format: in vivo; conditions: haematoxylin and eosin, after ulcerogenic liability dosing
Experimental: Whole rats stomach were collected, selected stomach samples from each rat were fixed in 10% neutral buffered formalin for 48 h and routinely processed for paraffin embedding. 5 μm Thickness sections were obtained then stained with haematoxylin and eosin for histopathological evaluation.

ovine COX-1 = target: T1, ovine COX-1 (Ovis aries, UniProt P05979); assay: In vitro COX-1 inhibition assay (EIA kit, Cayman)
T1 sequence (P05979 25-600): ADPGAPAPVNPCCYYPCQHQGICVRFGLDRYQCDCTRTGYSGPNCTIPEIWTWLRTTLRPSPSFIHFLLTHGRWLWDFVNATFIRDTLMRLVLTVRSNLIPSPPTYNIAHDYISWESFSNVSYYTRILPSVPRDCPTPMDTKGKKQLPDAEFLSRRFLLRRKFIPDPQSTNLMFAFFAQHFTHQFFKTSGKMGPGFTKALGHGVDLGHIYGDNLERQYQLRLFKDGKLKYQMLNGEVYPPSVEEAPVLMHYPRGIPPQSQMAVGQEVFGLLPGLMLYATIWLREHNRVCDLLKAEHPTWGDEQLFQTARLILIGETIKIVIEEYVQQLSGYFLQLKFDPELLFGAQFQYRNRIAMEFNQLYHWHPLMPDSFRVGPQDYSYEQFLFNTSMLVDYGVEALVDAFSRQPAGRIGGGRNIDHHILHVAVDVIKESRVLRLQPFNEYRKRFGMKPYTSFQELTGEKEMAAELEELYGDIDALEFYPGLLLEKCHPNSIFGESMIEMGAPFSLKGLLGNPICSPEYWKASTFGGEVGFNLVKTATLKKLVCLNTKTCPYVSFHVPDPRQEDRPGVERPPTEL
Experimental: (§1) The peroxidase activity of cyclooxygenase enzyme isoforms was measured using the COX activity assay kit. The ability of the test compounds to inhibit both ovine COX-1 and COX-2 enzymes was explored in vitro using a colorimetric enzyme immunoassay (EIA) kit. The appearance of oxidised N,N,N′,N′-tetramethyl-p-phenylenediamine (TMPD) was monitored at 590 nm. The kit includes isozyme-specific inhibitors for distinguishing COX-2 activity from that of COX-1.

ovine COX-2 = target: T2, ovine COX-2 (Ovis aries, UniProt P79208); assay: In vitro COX-2 inhibition assay (EIA kit, Cayman); conditions: for IC50: IC50 COX-2, ovine COX-2, mean of two determinations; for SI, COX-2 selectivity index (COX-1 IC50/COX-2 IC50): ovine enzymes
T2 sequence (P79208 17-603): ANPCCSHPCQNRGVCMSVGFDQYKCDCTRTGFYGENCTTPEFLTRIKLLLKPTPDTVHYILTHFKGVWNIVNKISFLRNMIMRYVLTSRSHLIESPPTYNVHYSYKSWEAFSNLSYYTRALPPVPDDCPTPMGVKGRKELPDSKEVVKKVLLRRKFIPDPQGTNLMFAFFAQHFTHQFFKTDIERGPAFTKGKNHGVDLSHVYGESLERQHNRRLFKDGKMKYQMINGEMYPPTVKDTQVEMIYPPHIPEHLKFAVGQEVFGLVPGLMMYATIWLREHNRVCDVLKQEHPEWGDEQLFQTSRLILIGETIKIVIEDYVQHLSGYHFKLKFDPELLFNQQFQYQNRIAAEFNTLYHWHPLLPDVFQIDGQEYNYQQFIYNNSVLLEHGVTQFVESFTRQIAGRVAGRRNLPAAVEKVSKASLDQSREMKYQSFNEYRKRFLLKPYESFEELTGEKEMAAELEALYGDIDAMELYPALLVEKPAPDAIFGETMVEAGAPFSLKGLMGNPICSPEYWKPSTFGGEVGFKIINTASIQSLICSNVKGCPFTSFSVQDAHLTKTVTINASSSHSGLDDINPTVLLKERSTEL
Experimental: as §1

abdominal writhings = assay: Acetic acid-induced writhing test (peripheral analgesic activity); conditions: 10 mg/kg oral, mice, 0.6% acetic acid i.p.
Excerpt: Pain was induced by intraperitoneal injection of acetic acid, then counting the number of abdominal writhings.

[3] = tested on: latency time of pain response; assay: Hot plate method (central analgesic activity); format: in vivo; conditions: 10 mg/kg oral, mice, hot plate 55 °C, after 60 min
Experimental: This method was used to evaluate the central analgesic activity by determination of the delay in the latency time of pain response. […] After 60 min, the animals were placed on a hot plate maintained at 55 ± 0.5 °C. The reaction time was recorded as the time taken by the animals to […] or lick the fore or hind paw or jump off the plate.

COX-2 = conditions: cited from earlier work
[4] = cited from earlier work

| SMILES | melting point | IC50 (ovine COX-1) | IC50 (ovine COX-2) | SI, COX-2 selectivity index (COX-1 IC50/COX-2 IC50) (ovine COX-2) | %Inhibition of paw oedema, 1h [1] | Paw thickness change mean ± SEM, 1h [1] | %Inhibition of paw oedema, 3h [1] | Paw thickness change mean ± SEM, 3h [1] | %Inhibition of paw oedema, 5h [1] | Paw thickness change mean ± SEM, 5h [1] | Average number of ulcers [2] | Ulcer index [2] | Histopathological findings in stomach (rat's gastric tissue) | Peripheral analgesic activity (writhing) (abdominal writhings) | Central analgesic activity (delay in latency time) [3] | COX-2/COX-1 selectivity (SI) (COX-2) | Gastric ulceration side effect [4] |
| --- | --- | --- | --- | --- | --- | --- | --- | --- | --- | --- | --- | --- | --- | --- | --- | --- | --- |
| O=C1OCC(c2ccc(-c3nnn[nH]3)cc2)=C1c1ccccc1 [VI] | – | – | – | – | – | – | – | – | – | – | – | – | – | – | – | 2.11 | lacked the side effect of gastric ulceration |
| Cc1ccc(-c2cc(C(F)(F)F)nn2-c2ccc(-c3nnn[nH]3)cc2)cc1 [V] | – | – | – | – | – | – | – | – | – | – | – | – | – | – | – | 2.16 | lacked the side effect of gastric ulceration |

Now from value to compound, other results behind:

| melting point | IC50 (ovine COX-1) | IC50 (ovine COX-2) | SI, COX-2 selectivity index (COX-1 IC50/COX-2 IC50) (ovine COX-2) | SMILES | %Inhibition of paw oedema, 1h [1] | Paw thickness change mean ± SEM, 1h [1] | %Inhibition of paw oedema, 3h [1] | Paw thickness change mean ± SEM, 3h [1] | %Inhibition of paw oedema, 5h [1] | Paw thickness change mean ± SEM, 5h [1] | Average number of ulcers [2] | Ulcer index [2] | Histopathological findings in stomach (rat's gastric tissue) | Peripheral analgesic activity (writhing) (abdominal writhings) | Central analgesic activity (delay in latency time) [3] | COX-2/COX-1 selectivity (SI) (COX-2) | Gastric ulceration side effect [4] |
| --- | --- | --- | --- | --- | --- | --- | --- | --- | --- | --- | --- | --- | --- | --- | --- | --- | --- |
| 263 to 265 °C | 11.3 µM | 0.45 µM | 25.13 | CN(C)c1ccc(-c2cc(-c3ccc(-n4cnnn4)cc3)[nH]c(=O)c2C#N)cc1 [Compound 5d, 6-[4-(1H-Tetrazol-1-yl)phenyl]-4-[4-(dimethylamino)phenyl]-2-oxo-1,2-dihydropyridine-3-carbonitrile] | 71% | 0.45 ± 0.10 mm | 63% | 0.61 ± 0.12 mm | 43% | 0.76 ± 0.15 mm | 1.25 | 1.50 | Mucous degeneration in gastric glandular epithelium, thickening and hyalinosis of basement membrane, as well as eosinophilic infiltrations in submucosa | most active | – | – | – |
| 272 to 274 °C | 7.14 µM | – | 37.57 | COc1ccc(-c2cc(-c3ccc(-n4cnnn4)cc3)[nH]c(=O)c2C#N)cc1OC [Compound 5e, 6-[4-(1H-Tetrazol-1-yl)phenyl]-4-(3,4-dimethoxyphenyl)-2-oxo-1,2-dihydropyridine-3-carbonitrile] | 71% | 0.45 ± 0.16 mm | 42% | 0.98 ± 0.03 mm | 49% | 0.68 ± 0.08 mm | 1.00 | 1.25 | affect only muscular layer of the stomach by causing corrugation and hyalinosis in some muscle bundles and reach to coagulative necrosis | most active | potent analgesic activities | – | – |
| 226 to 228 °C | 7.11 µM | 0.33 µM | 21.54 | COc1ccc(C2CC(c3ccc(-n4cnnn4)cc3)=NN2c2ccc(S(N)(=O)=O)cc2)cc1OC (stereo not shown) [Compound 9a, 4-{3-[4-(1H-Tetrazol-1-yl)phenyl]-5-(3,4-dimethoxyphenyl)-4,5-dihydro-1H-pyrazol-1-yl)benzenesulphonamide] | 75% | 0.40 ± 0.00 mm | 39% | 1.03 ± 0.09 mm | 19% | 1.08 ± 0.20 mm | 1.25 | 2.00 | sever congestion in blood capillaries and lymphocytic infiltration; also recorded: caused destructive effect on the mucosa and ulceration | most active | – | – | – |
